Measurements reported in the supplement of paper PMC10627819.

Assays:
Experiment in all cases: fitness (endpoint OD595 vs no drug) (fraction); higher = more growth
S. aureus Newman = test system: S. aureus Newman
Procedure, shortened: (§1)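 Fitness is computed from the optical density at which cultures reach stationary phase, divided by the robust mean of no-drug control wells. Any value above 1 is set to 1. Cultures started at OD595 0.01 in 384-well plates with TSB, LB Lennox or CY at 37 °C, and OD595 was read every 30 min for 14 h against a first-reading background.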

S. pneumoniae D39V = test system: S. pneumoniae D39V
Procedure, shortened: as §1

S. aureus DSM 20231 = test system: S. aureus DSM 20231
Procedure, shortened: as §1
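Further: OD595 on entry to stationary phase over no-drug wells; at most 1.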

CO[C@@]12[C@H](COC(N)=O)C3=C(C(=O)C(C)=C(N)C3=O)N1C[C@@H]1N[C@@H]12 [Mitomycin C] + CN[C@@H]1[C@H](O)[C@H](NC)[C@H]2O[C@@]3(O)C(=O)C[C@@H](C)O[C@H]3O[C@@H]2[C@H]1O [Spectinomycin]
fitness
Details | first compound 0.001075 µg/mL | first compound 0.00215 µg/mL | first compound 0.0043 µg/mL | first compound 0.0156 µg/mL | first compound 0.0312 µg/mL | first compound 0.0625 µg/mL
S. aureus DSM 20231, partner 4 µg/mL | – | – | – | 0.726 | 0.729 | 0.67
S. aureus DSM 20231, partner 8 µg/mL | – | – | – | 0.705 | 0.733 | 0.62
S. aureus DSM 20231, partner 16 µg/mL | – | – | – | 0.687 | 0.667 | 0.57
S. aureus Newman, partner 4 µg/mL | – | – | – | 0.653 | 0.656 | 0.496
S. aureus Newman, partner 8 µg/mL | – | – | – | 0.662 | 0.684 | 0.432
S. aureus Newman, partner 16 µg/mL | – | – | – | 0.603 | 0.541 | 0.33
S. pneumoniae D39V, partner 4 µg/mL | 0.899 | 0.814 | 0.746 | – | – | –
S. pneumoniae D39V, partner 8 µg/mL | 0.916 | 0.824 | 0.647 | – | – | –
S. pneumoniae D39V, partner 16 µg/mL | 0.839 | 0.784 | 0.628 | – | – | –

fitness, one replicate
Details | first compound 0.002 µg/mL | first compound 0.004 µg/mL | first compound 0.008 µg/mL | first compound 0.0156 µg/mL | first compound 0.0312 µg/mL | first compound 0.0625 µg/mL
S. aureus DSM 20231, partner 32 µg/mL | – | – | – | 0.614 | 0.475 | 0.258
S. aureus DSM 20231, partner 64 µg/mL | – | – | – | 0.0362 | 0.0235 | 0.0021
S. aureus Newman, partner 32 µg/mL | – | – | – | 0.294 | 0.158 | 0.034
S. aureus Newman, partner 64 µg/mL | – | – | – | 0.017 | 0.0135 | 0
S. pneumoniae D39V, partner 4 µg/mL | 0.903 | 0.851 | 0.638 | – | – | –
S. pneumoniae D39V, partner 8 µg/mL | 0.812 | 0.77 | 0.562 | – | – | –
